Source: US20070128217A1 (priority 2003, published 2007)

Tests used:
[1] = tested on: control sera (pooled serum of ten healthy LUMC hospital workers; commercial negative donor pooled serum from the Dutch bloodbank); type: binding, human; design: Binding of Control serum LUMC to linear peptides / Binding of Control serum Blood-bank to linear peptides / Binding of Control serum LUMC to looped peptides / Binding of Control Serum Blood-Bank to Looped peptides / Binding of Control serum LUMC to linear peptides of the protein M of SARS-CoV Urbani / Binding of Control serum Blood-bank to linear peptides of the protein M of SARS-CoV Urbani / Binding of Control serum LUMC to looped peptides of the protein M of SARS-CoV Urbani / Binding of Control Serum Blood-Bank to Looped peptides of the protein M of SARS-CoV Urbani: unit not given here
[2] = tested on: antibodies in sera from SARS patients (sera 1a, 1b, 2, 6, 37, 62, London, SARS-yellow, SARS-green); type: binding, human; design: Binding of serum 6 to linear peptides of protein X1 of SARS-CoV Urbani / Binding of serum 37 to linear peptides of protein X1 of SARS-CoV Urbani / Binding of serum 6 to looped/cyclic peptide (PEPSCAN-ELISA) / Binding of serum 37 to looped/cyclic peptide (PEPSCAN-ELISA) / Binding of serum 37 to looped/cyclic peptides of protein X1 of SARS-CoV Urbani / Binding of serum 6 to linear peptides of protein X2 / Binding of serum 37 to linear peptides of protein X2 / Binding of serum 37 to looped/cyclic peptides of protein X2 of SARS-CoV Urbani / Binding of serum 6 to linear peptides of protein M of SARS-CoV Urbani / Binding of serum 37 to linear peptides of protein M of SARS-CoV Urbani / Binding of serum 6 to looped/cyclic peptides of protein M of SARS-CoV Urbani / Binding of serum 37 to looped/cyclic peptides of protein M of SARS-CoV Urbani / Binding of serum 6 to linear peptides of protein X3 of SARS-CoV Urbani / Binding of serum 37 to linear peptides of protein X3 of SARS-CoV Urbani / Binding of serum 37 to looped/cyclic peptides of protein X3 of SARS-CoV Urbani / Binding of serum 6 to linear peptides of protein X4 of SARS-CoV Urbani / Binding of serum 37 to linear peptides of protein X4 of SARS-CoV Urbani / Binding of serum 37 to looped/cyclic peptides of protein X4 of SARS-CoV Urbani / Binding of serum 6 to linear peptides of protein X5 of SARS-CoV Urbani / Binding of serum 37 to linear peptides of protein X5 of SARS-CoV Urbani / Binding of serum 37 to looped/cyclic peptides of protein X5 of SARS-CoV Urbani / Binding of serum 6 to linear peptides of protein N of SARS-CoV Urbani / Binding of serum 37 to linear peptides of protein N of SARS-CoV Urbani / Binding of serum 6 to linear peptide (PEPSCAN-ELISA) / Binding of serum 1a to looped/cyclic peptides of protein N of SARS-CoV Urbani / Binding of serum 1b to looped/cyclic peptides of protein N of SARS-CoV Urbani / Binding of serum 2 to looped/cyclic peptides of protein N of SARS-CoV Urbani / Binding of serum 6 to looped/cyclic peptides of protein N of SARS-CoV Urbani / Binding of serum 37 to looped/cyclic peptides of protein N of SARS-CoV Urbani / Binding of serum 62 to looped/cyclic peptides of protein N of SARS-CoV Urbani / Binding of serum London to looped/cyclic peptides of protein N of SARS-CoV Urbani / Binding of serum SARS-green to looped/cyclic peptides of protein N of SARS-CoV Urbani: unit not given here
[3] = tested on: rabbit serum obtained by immunizing a rabbit with the SARS-CoV strain Frankfurt 1; type: binding; design: Binding of a rabbit serum to linear peptides / Binding of a rabbit serum to looped peptides / Rabbit serum linear peptides / Rabbit serum looped peptides / Binding of a rabbit serum to linear peptides of protein N of SARS-CoV Urbani (Rabbit serum linear peptides) / Binding of a rabbit serum to looped/cyclic peptides of protein N of SARS-CoV Urbani (Rabbit serum looped peptides): unit not given here

KFTTSLSLHKLLQTL
Binding of Control Serum Blood-Bank to Looped peptides [1]: 0.5 | Binding of Control serum Blood-bank to linear peptides [1]: 0.6 | Binding of Control serum LUMC to linear peptides [1]: 0.4 | Binding of Control serum LUMC to looped peptides [1]: 0.5 | Binding of serum 1a to linear peptides of protein X2 [2]: 0.5 | Binding of serum 1a to looped/cyclic peptides of protein X2 of SARS-CoV Urbani [2]: 0.5 | Binding of serum 1b to linear peptides of protein X2 [2]: 0.4 | Binding of serum 1b to looped/cyclic peptides of protein X2 of SARS-CoV Urbani [2]: 0.4 | Binding of serum 2 to linear peptides of protein X2 [2]: 0.4 | Binding of serum 2 to looped/cyclic peptides of protein X2 of SARS-CoV Urbani [2]: 0.5 | Binding of serum 6 to linear peptides of protein X2 [2]: 0.6 | Binding of serum 6 to looped/cyclic peptides of protein X2 of SARS-CoV Urbani [2]: 0.4 | Binding of serum 37 to linear peptides of protein X2 [2]: 0.5 | Binding of serum 37 to looped/cyclic peptides of protein X2 of SARS-CoV Urbani [2]: 0.5 | Binding of serum 62 to linear peptides of protein X2 [2]: 0.6 | Binding of serum 62 to looped/cyclic peptides of protein X2 of SARS-CoV Urbani [2]: 0.5 | Binding of serum London to linear peptides of protein X2 [2]: 0.5 | Binding of serum London to looped/cyclic peptides of protein X2 of SARS-CoV Urbani [2]: 0.6 | Binding of serum SARS-green to linear peptides of protein X2 [2]: 0.4 | Binding of serum SARS-green to looped/cyclic peptides of protein X2 of SARS-CoV Urbani [2]: 0.4 | Binding of serum SARS-yellow to linear peptides of protein X2 [2]: 0.5 | Binding of serum SARS-yellow to looped/cyclic peptides of protein X2 of SARS-CoV Urbani [2]: 0.3 | Binding of a rabbit serum to linear peptides [3]: 0.2 | Binding of a rabbit serum to looped peptides [3]: 0.4

KGFQFICNLLLLFVT
Binding of Control Serum Blood-Bank to Looped peptides [1]: 0.5 | Binding of Control serum Blood-bank to linear peptides [1]: 0.7 | Binding of Control serum LUMC to linear peptides [1]: 0.7 | Binding of Control serum LUMC to looped peptides [1]: 0.5 | Binding of serum 1a to linear peptides of protein X1 of SARS-CoV Urbani [2]: 0.6 | Binding of serum 1a to looped/cyclic peptide (PEPSCAN-ELISA) [2]: 0.6 | Binding of serum 1b to linear peptides of protein X1 of SARS-CoV Urbani [2]: 0.5 | Binding of serum 1b to looped/cyclic peptide (PEPSCAN-ELISA) [2]: 0.4 | Binding of serum 2 to linear peptides of protein X1 of SARS-CoV Urbani [2]: 0.6 | Binding of serum 2 to looped/cyclic peptide (PEPSCAN-ELISA) [2]: 0.4 | Binding of serum 6 to linear peptides of protein X1 of SARS-CoV Urbani [2]: 0.5 | Binding of serum 6 to looped/cyclic peptide (PEPSCAN-ELISA) [2]: 1.0 | Binding of serum 37 to linear peptides of protein X1 of SARS-CoV Urbani [2]: 0.6 | Binding of serum 37 to looped/cyclic peptide (PEPSCAN-ELISA) [2]: 0.6 | Binding of serum 62 to linear peptides of protein X1 of SARS-CoV Urbani [2]: 0.7 | Binding of serum 62 to looped/cyclic peptide (PEPSCAN-ELISA) [2]: 0.6 | Binding of serum London to linear peptides of protein X1 of SARS-CoV Urbani [2]: 0.3 | Binding of serum London to looped/cyclic peptide (PEPSCAN-ELISA) [2]: 1.1 | Binding of serum SARS-green to linear peptides of protein X1 of SARS-CoV Urbani [2]: 0.2 | Binding of serum SARS-green to looped/cyclic peptide (PEPSCAN-ELISA) [2]: 0.4 | Binding of serum SARS-yellow to linear peptides of protein X1 of SARS-CoV Urbani [2]: 0.6 | Binding of serum SARS-yellow to looped/cyclic peptide (PEPSCAN-ELISA) [2]: 0.6 | Binding of a rabbit serum to linear peptides [3]: 0.6 | Binding of a rabbit serum to looped peptides [3]: 0.5

KHKKVSTNLCTHSFR
Binding of Control Serum Blood-Bank to Looped peptides [1]: 0.5 | Binding of Control serum Blood-bank to linear peptides [1]: 0.9 | Binding of Control serum LUMC to linear peptides [1]: 0.6 | Binding of Control serum LUMC to looped peptides [1]: 0.7 | Binding of serum 1a to looped/cyclic peptides of protein X2 of SARS-CoV Urbani [2]: 0.5 | Binding of serum 1b to looped/cyclic peptides of protein X2 of SARS-CoV Urbani [2]: 0.0 | Binding of serum 2 to looped/cyclic peptides of protein X2 of SARS-CoV Urbani [2]: 0.7 | Binding of serum 6 to looped/cyclic peptides of protein X2 of SARS-CoV Urbani [2]: 0.4 | Binding of serum 37 to looped/cyclic peptides of protein X2 of SARS-CoV Urbani [2]: 0.2 | Binding of serum 62 to looped/cyclic peptides of protein X2 of SARS-CoV Urbani [2]: 0.4 | Binding of serum London to looped/cyclic peptides of protein X2 of SARS-CoV Urbani [2]: 0.1 | Binding of serum SARS-green to looped/cyclic peptides of protein X2 of SARS-CoV Urbani [2]: 0.3 | Binding of serum SARS-yellow to looped/cyclic peptides of protein X2 of SARS-CoV Urbani [2]: 0.1 | Recognition of the peptide by sera of SARS-CoV infected individuals, and form (linear, looped/cyclic) in which it is recognized [2]: recognized in linear form | Binding of a rabbit serum to linear peptides [3]: 0.4 | Binding of a rabbit serum to looped peptides [3]: 0.0

KKVSTNLCTHSFRKK
Binding of Control Serum Blood-Bank to Looped peptides [1]: 0.5 | Binding of Control serum Blood-bank to linear peptides [1]: 0.7 | Binding of Control serum LUMC to linear peptides [1]: 0.4 | Binding of Control serum LUMC to looped peptides [1]: 0.8 | Binding of serum 1a to looped/cyclic peptides of protein X2 of SARS-CoV Urbani [2]: 0.5 | Binding of serum 1b to looped/cyclic peptides of protein X2 of SARS-CoV Urbani [2]: 0.3 | Binding of serum 2 to looped/cyclic peptides of protein X2 of SARS-CoV Urbani [2]: 0.7 | Binding of serum 6 to looped/cyclic peptides of protein X2 of SARS-CoV Urbani [2]: 0.5 | Binding of serum 37 to looped/cyclic peptides of protein X2 of SARS-CoV Urbani [2]: 0.5 | Binding of serum 62 to looped/cyclic peptides of protein X2 of SARS-CoV Urbani [2]: 0.6 | Binding of serum London to looped/cyclic peptides of protein X2 of SARS-CoV Urbani [2]: 0.2 | Binding of serum SARS-green to looped/cyclic peptides of protein X2 of SARS-CoV Urbani [2]: 0.3 | Binding of serum SARS-yellow to looped/cyclic peptides of protein X2 of SARS-CoV Urbani [2]: 0.5 | Recognition of the peptide by sera of SARS-CoV infected individuals, and form (linear, looped/cyclic) in which it is recognized [2]: recognized in linear form | Binding of a rabbit serum to linear peptides [3]: 0.3 | Binding of a rabbit serum to looped peptides [3]: 0.1

KLVFLWLLWPVTLAC
Binding of Control Serum Blood-Bank to Looped peptides of the protein M of SARS-CoV Urbani [1]: 0.7 | Binding of Control serum Blood-bank to linear peptides of the protein M of SARS-CoV Urbani [1]: 0.7 | Binding of Control serum LUMC to linear peptides of the protein M of SARS-CoV Urbani [1]: 0.5 | Binding of Control serum LUMC to looped peptides of the protein M of SARS-CoV Urbani [1]: 0.6 | Binding of serum 1a to linear peptides of protein M of SARS-CoV Urbani [2]: 0.7 | Binding of serum 1a to looped/cyclic peptides of protein M of SARS-CoV Urbani [2]: 0.6 | Binding of serum 1b to linear peptides of protein M of SARS-CoV Urbani [2]: 0.6 | Binding of serum 1b to looped/cyclic peptides of protein M of SARS-CoV Urbani [2]: 0.2 | Binding of serum 2 to linear peptides of protein M of SARS-CoV Urbani [2]: 0.5 | Binding of serum 2 to looped/cyclic peptides of protein M of SARS-CoV Urbani [2]: 0.6 | Binding of serum 6 to linear peptides of protein M of SARS-CoV Urbani [2]: 0.4 | Binding of serum 6 to looped/cyclic peptides of protein M of SARS-CoV Urbani [2]: 0.7 | Binding of serum 37 to linear peptides of protein M of SARS-CoV Urbani [2]: 0.5 | Binding of serum 37 to looped/cyclic peptides of protein M of SARS-CoV Urbani [2]: 0.6 | Binding of serum 62 to linear peptides of protein M of SARS-CoV Urbani [2]: 0.5 | Binding of serum 62 to looped/cyclic peptides of protein M of SARS-CoV Urbani [2]: 0.6 | Binding of serum London to linear peptides of protein M of SARS-CoV Urbani [2]: 0.4 | Binding of serum London to looped/cyclic peptides of protein M of SARS-CoV Urbani [2]: 0.2 | Binding of serum SARS-green to linear peptides of protein M of SARS-CoV Urbani [2]: 0.4 | Binding of serum SARS-green to looped/cyclic peptides of protein M of SARS-CoV Urbani [2]: 0.3 | Binding of serum SARS-yellow to linear peptides of protein M of SARS-CoV Urbani [2]: 0.2 | Binding of serum SARS-yellow to looped/cyclic peptides of protein M of SARS-CoV Urbani [2]: 0.5 | Rabbit serum linear peptides [3]: 0.1 | Rabbit serum looped peptides [3]: 0.0
